Measured values published in US20250035616A1, “Organoid Compositions” (SHIMADZU CORPORATION, priority 2023, published 2025).

Legend:
[1] = test system: HYDROX-cultured human liver organoid composition
Description: In this Example, the human liver organoid produced in Reference Example 1 was cultured with HYDROX (FIG. 1A) to produce a human liver organoid composition including the HYDROX, and its liver function was identified. The Matrigel-cultured human liver organoid produced in Reference Example 1 was treated with TrypLE Select so that the Matrigel was degraded. The resultant cell cluster was suspended in the medium for a human liver organoid, and was seeded on a HYDROX plate at 300 μL/well, followed by three-dimensional culture (HYDROX culture). The cell cluster was reseeded on a new HYDROX plate every 7 days. The HYDROX plate was produced as described below. In a 48-well adhesive plate, a HYDROX raw material polymer (Psar-PLLA) was mixed with 95% ethanol (Nacalai tesque) at a concentration of 10 mg/mL, and the mixture was warmed at 70° C. for 10 minutes. The dissolved polymer solution was dropped into a culture plate, and was dried for 8 hours or more to produce the human liver organoid composition including the HYDROX. In this Example and the following Examples, the human liver organoid composition including the HYDROX is referred to as “HYDROX-cultured human liver organoid composition.”
(§1) Further, at the initial stage of the development of a new drug, the safety of the drug needs to be accurately evaluated by a hepatotoxicity evaluation test. Accordingly, an investigation was made on the potential of the HYDROX-cultured human liver organoid composition to be applied to the hepatotoxicity evaluation test.

primary human liver cell = test system: primary human liver cell
Description: In this Reference Example, 1 lot (lot name: HC4-24, XenoTech) of cultured primary human liver cells were cultured. The cells were rapidly thawed in a shaking water bath at 37° C., and were suspended in OptiTHAW Hepatocyte Isolation Kit (XenoTech) that had been preheated, followed by centrifugation at 100 g and room temperature for 5 minutes. The liver cells were suspended in HCM (Lonza) so that their density became 2.5×10^5 cells/cm^2, followed by seeding on 48-well Corning^RBioCoat™ Collagen I-coated Microplates (Corning). After the cells had been cultured for 48 hours, various tests were performed.
as §1

Row | Compound | cell viability [1] | cell viability (primary human liver cell)
1 | Cc1c(C)c2c(c(C)c1O)CCC(C)(COc1ccc(CC3SC(=O)NC3=O)cc1)O2 (centres unmarked) [Troglitazone] | the viability reduced in accordance with the concentration of each of the drugs | the viability reduced in accordance with the concentration of each of the drugs
2 | CC(=O)Nc1ccc(O)cc1 [acetaminophen] | the viability reduced in accordance with the concentration of each of the drugs | –
3 | CCCCc1oc2ccccc2c1C(=O)c1cc(I)c(OCCN(CC)CC)c(I)c1 [amiodarone] | the viability reduced in accordance with the concentration of each of the drugs | the viability reduced in accordance with the concentration of each of the drugs
